Experiments:
[1] = Cmax in Sprague-Dawley rat at 1 mg/kg, iv; type: ADME, organism-based; set-up: dose 1 mg/kg, route iv; conditions: in vivo
[2] = Toxicity in rat assessed as reduction in T helper cells in peripheral blood at 150 mg/kg, po measured for 14 days; type: organism-based, T-cell; conditions: in vivo, 336 h, time 14 day
[3] = Half life in Sprague-Dawley rat at 1 mg/kg, iv; type: ADME, organism-based; conditions: in vivo
[4] = Apparent permeability across basolateral to apical side in MDCK-MDR1 cells; type: ADME, cell-based, Canis lupus familiaris; conditions: dog, read-out: permeability
[5] = Cytotoxicity against human CD34-positive cell assessed as reduction in cell growth by celltiter-glo assay; type: toxicity, cell-based; conditions: human CD34-positive cells
[6] = target: Proprotein convertase subtilisin/kexin type 9 (Homo sapiens, UniProt Q8NBP7); experiment: Inhibition of full length human PCSK9 expressed in human Huh-7 cells by ELISA analysis; type: cell-based
[7] = Toxicity in rat assessed as reduction in T cells in peripheral blood at 150 mg/kg, po measured for 14 days; type: organism-based, T-cell; conditions: in vivo, 336 h, time 14 day
[8] = Clearance in Sprague-Dawley rat at 1 mg/kg, iv; type: ADME, organism-based; conditions: in vivo
CYP2C9 = CYP2C9 (Homo sapiens, UniProt P11712); experiment: Inhibition of CYP2C9 (unknown origin) at 3 uM relative to control; type: ADME
[9] = Unbound fraction in rat plasma by equilibrium dialysis analysis; type: ADME, cell-free
[10] = Toxicity in rat assessed as reduction in T cytotoxic cells in peripheral blood at 150 mg/kg, po measured for 14 days; type: organism-based, T-cell; conditions: in vivo, 336 h, time 14 day
[11] = Apparent permeability across apical to basolateral side in MDCK-MDR1 cells; type: ADME, cell-based, Canis lupus familiaris; conditions: dog, read-out: permeability
[12] = Selectivity index, ratio of IC50 for cytotoxicity against rat Bone marrow cell assessed as inhibition of cell growth by celltiter-glo assay to IC50 for inhibition of full length human PCSK9 expressed in human Huh-7 cells by ELISA analysis
[13] = Toxicity in rat assessed as reduction in B cells in peripheral blood at 150 mg/kg, po measured for 14 days; type: organism-based; conditions: in vivo, 336 h, time 14 day
Mus musculus = experiment: Downregulation of PCSK9 level in po dosed mouse; type: functional, organism-based; conditions: dose 10-300 mg/kg
[14] = Unbound fraction in human plasma by equilibrium dialysis analysis; type: ADME, cell-free
[15] = Unbound fraction in mouse plasma by equilibrium dialysis analysis; type: ADME, cell-free
[16] = Cytotoxicity against rat Bone marrow cell assessed as inhibition of cell growth with puromycin as high potent effect standard by celltiter-glo assay; type: toxicity, cell-based; conditions: rat bone marrow cells
[17] = target: Voltage-gated inwardly rectifying potassium channel KCNH2 (Homo sapiens, UniProt Q12809); experiment: Inhibition of hERG by patch clamp assay; type: toxicity
[18] = Cmax in rat at 25 mg/kg, po; type: ADME, organism-based; set-up: dose 25 mg/kg, route po; conditions: in vivo
CYP2D6 = CYP2D6 (Homo sapiens, UniProt P10635); experiment: Inhibition of CYP2D6 (unknown origin) at 3 uM relative to control; type: ADME
[19] = Volume of distribution at steady state in Sprague-Dawley rat at 1 mg/kg, iv; type: ADME, organism-based; conditions: in vivo, read-out: Vdss
[20] = Toxicity in rat assessed as mortality at 25 to 400 mg/kg, po measured for 14 days; type: organism-based; conditions: in vivo, 336 h, dose 25-400 mg/kg, time 14 day
[21] = Cytotoxicity against rat Bone marrow cell assessed as inhibition of cell growth with (R)-4-(3H-[1,2,3]triazolo[4,5-b]pyridin-3-yl)-N-(3-chloropyridin-2-yl)-N-(piperidin-3-yl) benzamide as high potent effect standard by celltiter-glo assay; type: toxicity, cell-based; conditions: rat, rat bone marrow cells
[22] = Lipophilicity, log D of the compound by shake flask method; type: physicochemical; conditions: octanol/water
[23] = Oral bioavailability in Sprague-Dawley rat at 5 mg/kg; type: ADME, organism-based; conditions: in vivo
[24] = Apparent permeability of compound in MDCK-II cells; type: ADME, cell-based, Canis lupus familiaris; conditions: dog, read-out: permeability
CYP3A4 = CYP3A4 (Homo sapiens, UniProt P08684); experiment: Inhibition of CYP3A4 (unknown origin) at 3 uM relative to control; type: ADME
CYP1A2 = target: T1, CYP1A2 (Homo sapiens, UniProt P05177); experiment: Inhibition of CYP1A2 (unknown origin) at 3 uM relative to control; type: ADME
T1 sequence (P05177 whole entry): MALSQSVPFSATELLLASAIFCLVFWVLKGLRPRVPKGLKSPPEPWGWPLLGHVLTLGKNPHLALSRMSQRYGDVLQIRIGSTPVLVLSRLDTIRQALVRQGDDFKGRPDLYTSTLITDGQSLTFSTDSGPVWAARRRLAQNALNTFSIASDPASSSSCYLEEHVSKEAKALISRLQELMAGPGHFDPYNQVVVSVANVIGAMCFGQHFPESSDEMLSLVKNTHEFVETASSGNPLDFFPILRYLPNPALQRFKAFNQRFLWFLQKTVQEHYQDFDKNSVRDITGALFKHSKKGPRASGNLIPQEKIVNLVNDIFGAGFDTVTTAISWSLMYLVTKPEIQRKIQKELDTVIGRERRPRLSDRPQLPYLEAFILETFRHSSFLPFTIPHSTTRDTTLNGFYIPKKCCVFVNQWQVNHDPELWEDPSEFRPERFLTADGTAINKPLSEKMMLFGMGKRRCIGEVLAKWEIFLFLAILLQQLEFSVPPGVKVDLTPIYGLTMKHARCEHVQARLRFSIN

Chain of CYP2D6 (P10635 whole entry): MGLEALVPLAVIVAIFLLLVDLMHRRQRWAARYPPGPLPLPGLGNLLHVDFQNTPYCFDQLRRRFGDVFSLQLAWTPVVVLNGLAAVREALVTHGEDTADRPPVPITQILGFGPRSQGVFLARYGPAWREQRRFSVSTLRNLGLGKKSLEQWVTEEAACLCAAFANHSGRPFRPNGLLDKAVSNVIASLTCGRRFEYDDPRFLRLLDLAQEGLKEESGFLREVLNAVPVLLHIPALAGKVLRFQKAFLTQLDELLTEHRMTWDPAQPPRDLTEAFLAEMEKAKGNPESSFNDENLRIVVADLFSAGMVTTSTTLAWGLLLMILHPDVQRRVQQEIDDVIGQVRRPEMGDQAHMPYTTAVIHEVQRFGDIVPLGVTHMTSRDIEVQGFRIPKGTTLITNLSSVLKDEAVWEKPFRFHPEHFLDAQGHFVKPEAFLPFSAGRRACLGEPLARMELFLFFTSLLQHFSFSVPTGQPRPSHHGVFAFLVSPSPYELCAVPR
Chain of CYP2C9 (P11712 whole entry): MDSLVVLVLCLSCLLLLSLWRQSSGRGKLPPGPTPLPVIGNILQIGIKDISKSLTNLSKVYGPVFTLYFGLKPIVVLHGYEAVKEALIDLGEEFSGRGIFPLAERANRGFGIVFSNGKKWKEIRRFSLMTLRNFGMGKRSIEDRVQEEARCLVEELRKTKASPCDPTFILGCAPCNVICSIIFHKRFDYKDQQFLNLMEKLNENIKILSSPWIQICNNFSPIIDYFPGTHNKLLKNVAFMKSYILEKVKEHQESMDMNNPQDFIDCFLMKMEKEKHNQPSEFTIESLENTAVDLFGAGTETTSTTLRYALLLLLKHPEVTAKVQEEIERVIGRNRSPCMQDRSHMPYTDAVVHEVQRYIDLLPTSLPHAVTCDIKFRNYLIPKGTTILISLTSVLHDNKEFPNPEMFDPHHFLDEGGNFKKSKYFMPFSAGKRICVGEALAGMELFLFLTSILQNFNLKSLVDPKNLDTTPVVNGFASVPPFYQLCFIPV
Chain of Proprotein convertase subtilisin/kexin type 9 (Q8NBP7 31-152 limits assumed): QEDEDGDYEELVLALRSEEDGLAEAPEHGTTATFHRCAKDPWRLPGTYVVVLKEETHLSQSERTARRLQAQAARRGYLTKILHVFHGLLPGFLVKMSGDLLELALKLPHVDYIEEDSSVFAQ
Chain of Proprotein convertase subtilisin/kexin type 9 (Q8NBP7 153-692 limits assumed): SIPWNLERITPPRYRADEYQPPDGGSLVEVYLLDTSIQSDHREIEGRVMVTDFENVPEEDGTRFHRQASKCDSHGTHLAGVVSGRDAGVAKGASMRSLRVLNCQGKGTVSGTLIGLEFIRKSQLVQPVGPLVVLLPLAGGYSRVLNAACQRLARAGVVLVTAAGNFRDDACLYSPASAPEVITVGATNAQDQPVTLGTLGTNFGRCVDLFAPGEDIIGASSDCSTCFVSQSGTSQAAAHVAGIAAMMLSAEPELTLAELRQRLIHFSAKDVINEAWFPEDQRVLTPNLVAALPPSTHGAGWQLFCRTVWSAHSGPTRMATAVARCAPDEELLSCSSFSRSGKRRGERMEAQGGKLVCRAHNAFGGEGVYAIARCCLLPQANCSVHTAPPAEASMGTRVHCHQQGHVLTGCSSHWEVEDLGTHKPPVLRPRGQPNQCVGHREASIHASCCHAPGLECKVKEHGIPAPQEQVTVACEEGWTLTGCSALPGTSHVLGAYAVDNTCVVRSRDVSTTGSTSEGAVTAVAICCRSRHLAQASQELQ
Chain of CYP3A4 (P08684 whole entry): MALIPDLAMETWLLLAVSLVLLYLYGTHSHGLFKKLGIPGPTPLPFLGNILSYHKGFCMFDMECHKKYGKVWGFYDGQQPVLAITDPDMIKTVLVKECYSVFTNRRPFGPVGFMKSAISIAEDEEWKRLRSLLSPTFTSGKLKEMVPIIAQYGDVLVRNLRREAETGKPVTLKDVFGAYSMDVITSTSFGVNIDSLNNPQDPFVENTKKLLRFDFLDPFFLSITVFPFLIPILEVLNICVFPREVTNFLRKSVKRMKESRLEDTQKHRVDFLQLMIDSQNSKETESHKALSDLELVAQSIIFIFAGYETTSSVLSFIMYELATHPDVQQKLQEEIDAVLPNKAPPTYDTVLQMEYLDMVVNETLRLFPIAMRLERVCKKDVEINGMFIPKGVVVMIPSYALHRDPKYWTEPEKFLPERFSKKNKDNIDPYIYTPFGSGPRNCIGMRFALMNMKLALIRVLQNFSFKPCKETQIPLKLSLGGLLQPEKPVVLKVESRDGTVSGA
Chain of Voltage-gated inwardly rectifying potassium channel KCNH2 (Q12809 whole entry): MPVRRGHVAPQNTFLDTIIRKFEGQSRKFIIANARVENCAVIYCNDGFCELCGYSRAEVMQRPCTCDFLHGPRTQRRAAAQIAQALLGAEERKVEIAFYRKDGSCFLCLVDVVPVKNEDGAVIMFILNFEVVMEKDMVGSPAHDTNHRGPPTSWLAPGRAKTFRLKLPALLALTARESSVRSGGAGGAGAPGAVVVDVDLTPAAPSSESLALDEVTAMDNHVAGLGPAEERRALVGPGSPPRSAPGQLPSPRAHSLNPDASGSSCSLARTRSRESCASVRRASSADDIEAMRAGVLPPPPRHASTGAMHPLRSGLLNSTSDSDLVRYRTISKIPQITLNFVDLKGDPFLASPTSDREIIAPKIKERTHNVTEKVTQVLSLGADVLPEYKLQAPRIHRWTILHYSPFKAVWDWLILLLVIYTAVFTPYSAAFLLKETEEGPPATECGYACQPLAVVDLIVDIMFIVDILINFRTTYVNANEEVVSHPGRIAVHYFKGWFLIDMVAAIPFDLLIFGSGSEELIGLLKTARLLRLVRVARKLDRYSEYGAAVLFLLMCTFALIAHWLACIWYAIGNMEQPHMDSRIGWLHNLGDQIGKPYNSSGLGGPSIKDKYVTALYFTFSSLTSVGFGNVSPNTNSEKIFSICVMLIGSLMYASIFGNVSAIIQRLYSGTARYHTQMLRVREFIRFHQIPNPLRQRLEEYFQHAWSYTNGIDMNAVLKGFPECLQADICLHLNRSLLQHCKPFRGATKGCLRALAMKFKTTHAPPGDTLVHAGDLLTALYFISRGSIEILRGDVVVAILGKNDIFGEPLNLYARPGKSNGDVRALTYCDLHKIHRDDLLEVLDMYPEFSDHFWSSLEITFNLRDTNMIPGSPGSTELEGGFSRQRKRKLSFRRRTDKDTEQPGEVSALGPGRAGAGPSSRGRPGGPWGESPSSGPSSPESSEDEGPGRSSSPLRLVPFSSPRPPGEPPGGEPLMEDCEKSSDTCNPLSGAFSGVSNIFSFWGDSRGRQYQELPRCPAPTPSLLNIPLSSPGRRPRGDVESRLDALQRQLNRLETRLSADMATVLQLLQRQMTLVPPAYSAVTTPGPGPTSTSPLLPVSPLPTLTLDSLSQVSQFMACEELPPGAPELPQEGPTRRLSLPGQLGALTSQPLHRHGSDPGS

In the case of `Cc1cccnc1N(C(=O)c1ccc(-c2cnn3cccnc23)cc1)[C@@H]1CCCNC1`, the Cmax [1] is reported as 121 ng/mL, the Activity [2] is reported as “Non-Toxic” and the half-life [3] is reported as 1.7 h. It also gave a Papp B→A [4] of 15.7 ×10⁻⁶ cm/s, an IC50 [5] of 13.6 µM and an IC50 [6] of 2.25 µM. For the same compound, the Activity [7] was “Non-Toxic”, the clearance [8] was 43.6 mL/min/kg and the inhibition at 3 µM (CYP2C9) was < 5%. The Fu [9] was 0.32%, the Activity [10] was “Non-Toxic” and the Papp A→B [11] was 0.4 ×10⁻⁶ cm/s. The “Ratio IC50” value [12] was 7.47, the Activity [13] was “Non-Toxic” and the Activity (Mus musculus) was “Dose-Dependent Effect”. For the same compound, the Fu [14] was 0.54%, the Fu [15] was 0.37% and the IC50 [16] was 16.8 µM. The IC50 [17] was 56.5 µM, the Cmax [18] was 255 ng/mL and the inhibition at 3 µM (CYP2D6) was < 5%. The Vd [19] was 3 L/kg, the Activity [20] was “Non-Toxic” and the IC50 [21] was 18.2 µM. The logD [22] was 0.6, the bioavailability [23] was 20% and the Papp [24] was 7 ×10⁻⁶ cm/s. For the same compound, the inhibition at 3 µM (CYP3A4) was < 5% and the inhibition at 3 µM (CYP1A2) was < 5%.

— ChEMBL document CHEMBL5365408, “Small molecule inhibitors of PCSK9. SAR investigations of head and amine groups” (Bioorg Med Chem Lett, 2023)
